Holding throughout (assay type): functional
The subject of assay [1] is A549. Nature of the assay: Cell cycle arrest in human A549 cells assessed as accumulation at G0/G1 phase at 30 nM after 24 hrs by flow cytometry. (In general: Flow cytometry measures light scatter and fluorescence of single cells or particles in a stream.)
Assay [2] has as its system A549. Briefly: Cell cycle arrest in human A549 cells assessed as accumulation at S phase at 30 nM after 24 hrs by flow cytometry.
The subject of assay [3] is A549. Briefly: Cell cycle arrest in human A549 cells assessed as accumulation at G2/M phase at 30 nM after 24 hrs by flow cytometry.

With `CN[C@@H]1C[C@H]2O[C@@](C)([C@@H]1OC)n1c3ccccc3c3c4c(c5c6ccccc6n2c5c31)C(=O)NC4` [STAUROSPORINE], the Activity in the assay with A549 [1] turned out to be 74.6%; in the assay with A549 [2], 16.4%; in the assay on A549 [3], 9.1%.

The values are drawn from ChEMBL document CHEMBL1138327, “Metal-based paullones as putative CDK inhibitors for antitumor chemotherapy” (2007).
